Measured values: article PMC4136845, “Evaluation of Antimalarial Activity and Toxicity of a New Primaquine Prodrug” (PLoS ONE, 2014)
Several values for one entry are separate records, joined by “and”; a condition that tells them apart may be missing. Identical values can stand only once. Entries after “also recorded” stand apart in the source; their conditions may differ. Marks after values point to notes of the source that are not given here.

Experiments:
[1] = Partition coefficient (log P) by HPLC method, OECD guideline
Procedure: A Waters Alliance HPLC system equipped with a UV-Vis 2487 detector was employed. The chromatographic analysis was performed on a Symmetry C18 HPLC column (4.6 mm×250 mm, 5 µm particle size) and the mobile phase was methanol:water (70∶30), with detection at 256 nm. A flow rate of 1.0 mL/min was used and 50-µL samples were injected into the chromatographic system. The run time was approximately 15 min. The analytical curve was constructed on the basis of the retention time of the standards (purchased from Sigma Aldrich, NJ, USA) butanone, acetanilide, phenol, phenacetin, benzene, toluene, chlorobenzene and thymol, dissolved in mobile phase at a concentration of 50 µg/mL. The substances were analyzed in triplicate and the average retention time for each standard was used. The capacity factor (k) was obtained by the equation [20]: k = (tR - t0) /t0, where tR is the retention time of the test substance and t0 the dead-time. The log k values were correlated with the partition coefficients of the standards for construction of the analytical curve. […] The coefficient of determination (r^2) was also calculated to evaluate the linearity of the analytical curve.

[2] = system: P. gallinaceum; assay: Inhibition of P. gallinaceum sporogony in Aedes fluviatilis mosquitoes fed on infected, treated chickens; type: in vivo; settings: for Mean oocyts ±SD/ in times 4 h: chicken, mosquitoes fed 4 h after treatment; for Reduction in oocyst number, % / Sporogony inhibition, %: 4 h vs 0 h
Procedure: One-week-old chicks (Gallus gallus domesticus) previously inoculated with 10^6 RBC infected with P. gallinaceum, had their parasitemia monitoried daily, by examining Giemsa-stained thin blood smears; they were used to feed the mosquitoes when reaching 2.8 – 3.8%. The A. fluviatilis mosquitoes were kept for 24 h without sugar in their diet, to improve their ability to take the blood meal from chickens. For each compound the same infected chicken was offered twice to feed clean mosquitoes (30 female mosquitoes per group), before treatment, (group 0 h). Drug treatment was immediately performed by gavage and the treated chicken was offered again to blood-feed another group of mosquitoes (test group) 4 h after treatment of the chicken with the drug. […] In each experiment, another non-treated P. gallinaceum-infected chick was used twice (time 0 h and 4 h later) to feed clean mosquitoes, serving as an internal control.
Seven days after the blood meal, the mosquitoes were dissected and their midgut was removed under a stereomicroscope (100x), stained with 0.5% mercurochrome, and examined under a light microscope (40x) for the oocyst count. […] Two criteria were used to evaluate drug activity: the total number of infected mosquitoes and the mean number of oocysts, based on the examination of 20 mosquitoes in each group.

[3] = system: monkey kidney cell line (BGM); assay: In vitro cytotoxicity, MTT assay, BGM cells; settings: for MDL50 (Mean±SD) BGM: 24 h incubation
Procedure: (§1) The HepG2 (ATCC HB-8065) was originally received from the New University of Lisbon, Portugal, and BGM received as a gift from the Federal University of Minas Gerais and originally purchased from Rio de Janeiro Cell Bank (BCRJ 0049). When confluent, the cells were washed with RPMI culture medium, then trypsinized, distributed in a flat-bottom 96-well plate (5×10^3 cells/well), and incubated for 18 h at 37°C for cell adherence as described elsewhere. The compound (20 µL) was added to each well at various concentrations (1-1000 µg/mL) and the plate incubated for 24 h in a 5% CO2 atmosphere at 37°C. MTT [3-(4,5-dimethylthiazol-2-yl)-2,5-diphenyltetrazolium bromide] (5 mg/mL; 20 µL/well) was added to evaluate mitochondrial viability, and the plates were incubated again for 3 h, under the same culture conditions. The supernatant was carefully removed, and 100 µL of DMSO were added with mixing to dissolve the formazan crystals formed. The optical density was determined at 570 and 630 nm (background) (SpectraMax 340PC 384, Molecular Devices). Cell viability was expressed as the percentage of the control absorbance of the untreated cells after subtracting the appropriate background. The minimum lethal dose for 50% of the cells (MLD50) was determined as previously described.

[4] = system: human hepatoma cell line (HepG2); assay: In vitro cytotoxicity, MTT assay, HepG2 cells; settings: for MDL50 (Mean±SD) HepG2: 24 h incubation
Procedure: as §1

[5] = system: male Wistar rats; assay: Biochemical analysis of serum of rats treated with multiple doses; settings: rat serum, gavage four times a day for 4 days, PQ diphosphate 2.44 mg/kg free base, Phe-Ala-PQ 9.00 mg/kg, mean
Procedure: (§2) The biochemical, hematological and histopathological analyses were carried out in male Wistar rats (weighing 200–250 g). They were housed in wire cages, five animals per cage, with free access to food and water. The study protocol was approved by The Research Ethics Committee of the School of Pharmaceutical Sciences, UNESP, Araraquara (process 06/2009). […] After treatment with the drugs, the animals were decapitated for collection of blood and samples of liver and kidneys (preserved in 10% formaldehyde).
(§3) In biochemical analysis, aspartate aminotransferase (AST), alanine aminotransferase (ALT), gamma-glutamyltransferase (GGT), bilirubin, creatinine and urea kits were purchased from LabTest Diagnostica SA (Lagoa Santa,Minas Gerais, Brazil). Alkaline phosphatase (ALP) was assayed by the conversion of p-nitrophenyl phosphate to p-nitrophenol in a kinetic reaction, measured with a spectrophotometer at 405 nm. To determine the level of methemoglobin in relation to oxyhemoglobin, we used the method described by Naoum and collaborators. The blood was hemolyzed and the hemoglobin stabilized in 60 mM phosphate buffer, pH 6.8. The levels of methemoglobin and oxyhemoglobin were determined by spectrophotometric absorption at 630 and 540 nm. The total and differential white blood cell (WBC) counts were performed using a Neubauer chamber and blood smears, respectively. The hematocrit was determined using conventional method by microcapillary centrifugation.

[6] = system: male Wistar rats; assay: Hemogram of rats treated with multiple doses; settings: gavage four times a day for 4 days, PQ 2.44 mg/kg free base, Phe-Ala-PQ 9.00 mg/kg, mean (CI 95)
Procedure: as §2, §3

[7] = system: male Wistar rats; assay: Histopathological evaluation of rat liver and kidney; settings: multiple doses; for Liver glycogen: PAS-positive cells (total), periportal region: compared to the control group; for Histopathological analysis of the kidney: hematoxylin/eosin
Procedure: as §2
The liver and kidney were removed from each rat to perform the histopathological evaluation. Tissue pieces were fixed in 10% formaldehyde and embedded in paraffin. Each organ was then cut into 4-µm thick sections and subjected to standard hematoxylin/eosin staining. Hepatic glycogen staining in sections was carried out using the standard periodic acid-Schiff (PAS) reaction, followed by hematoxylin counterstaining, and the periportal and centrilobular regions of the liver were analyzed according to Thoolen et al.. Five periportal regions and five centrilobular regions were photographed in each animal, for a total of 300 photographs, and these images were adjusted using Pixelmator software (2.2.1). Nuclear hepatocyte glycogen levels were classified as: A- PAS<50% of cells, B- PAS≥50% of cells and C- PAS-negative. Additionally, liver sections were examined for the occurrence of microvesicular fatty changes, as well as the kidney sections for inflammatory infiltration, reduction of Bowman's spaces and changes in renal tubules. Statistical analysis was performed in Graphpad Prism 5.0b. Data for each organ analysis were expressed qualitatively and quantitatively, and normal distribution was verified (D'Agostin and Person). t-tests and chi-square tests were performed, and non-parametric data were evaluated using the Mann-Whitney or Kruskal-Wallis test for pair wise comparisons of groups. The significance level was set at 5%.

[8] = previous study; cited from earlier work
[9] = system: G6PD-deficient human red blood cells; assay: In vitro hemolysis assay
Procedure: (§4) The hemolytic rate was calculated using 0.05% saponin as the positive control for hemolysis of human RBC, which was considered 100% [24], [25]. The diagnosis of G6PD deficiency was performed using a technique based on the principle that hemoglobin oxidized to methemoglobin, by the action of sodium nitrite, is catalyzed by an enzyme, in the presence of methylene blue [26]. […] All participants signed a written informed consent before blood collection. The consent was approved by the Ethics Committee of CEPEM.

[10] = in vitro; settings: human
Procedure: as §4

[11] = cited from earlier work
[12] = In vitro hemolysis assay; settings: human
Procedure: as §4

[13] = single oral dose 1.0 mg/kg (Phe-Ala-PQ: 0.19 mg/kg PQ)
[14] = single oral dose 5.0 mg/kg (0.94 mg/kg PQ)
[15] = single oral dose 10 mg/kg (1.9 mg/kg PQ)
[16] = MTT, 24 h, expressed as PQ equivalents

COc1cc(NC(C)CCCNC(=O)[C@H](C)NC(=O)[C@@H](N)Cc2ccccc2)c2ncccc2c1 (stereo partly drawn) [Phe-Ala-PQ, phenylalanine-alanine-primaquine]
log P ([1]; HPLC method): 0.94
Mean oocyts ±SD/ in times 4 h [2, 13]: 26±36
Mean oocyts ±SD/ in times 4 h [2, 14]: 6±6
Mean oocyts ±SD/ in times 4 h [2, 15]: 0±0
Reduction in oocyst number, % [2, 13]: 0%
Sporogony inhibition, % [2, 13]: 0%
Reduction in oocyst number, % [2, 14]: 70%
Reduction in oocyst number, % [2, 15]: 100%
Sporogony inhibition, % [2, 15]: 100%
MDL50 BGM, PQ equivalents [3, 16]: 110 µg/mL
MDL50 (Mean±SD) BGM ([3]; MTT): 580 µg/mL and 580 ± 86 µg/mL
Toxicity to BGM cells compared to PQ ([3]; ratio of MDL50 values): about two times less toxic
MDL50 HepG2, PQ equivalents [4, 16]: 175 µg/mL
MDL50 (Mean±SD) HepG2 ([4]; MTT): 920 µg/mL and 920 ± 1 µg/mL
Toxicity to HepG2 cells compared to PQ ([4]; ratio of MDL50 values): five times less toxic
ALP [5]: 93.52 U/L
ALT [5]: 185.7 ^a, ^b U/L
AST [5]: 290.6^a, ^b U/L
Creatinine [5]: 0.529 mg/dL
Direct bilirubin [5]: 0.147 mg/dL
GGT [5]: 13.03^a, ^b U/L
Total bilirubin [5]: 0.711 mg/dL
Urea [5]: 5.734^a, ^b mg/dL
Urea ([5]; listed as prodrug): 5.734 mg/dL
Eosinophils Absolute (No. cells) [6]: 40 (0–152) No. cells
Eosinophils Relative (%) [6]: 0.40 (0.00–1.51) %
Hematocrit [6]: 47 (45–48) %
Hemoglobin [6]: 11.76 (11.38–12.14)
Leukocytes [6]: 8700 ^a ^, ^b (5623–11777) /mm^3
Lymphocytes Absolute (No. cells) [6]: 7691 ^a ^, ^b (5947–9976) No. cells
Lymphocytes Relative (%) [6]: 83.0 ^a (75.8–90.2) %
Methemoglobin [6]: 3.65 (3.45–3.85) %
Monocytes Absolute (No. cells) [6]: 812 ^b (0–1728) No. cells
Monocytes Relative (%) [6]: 7.60 ^b (0.06–15.1) %
Neutrophils Band Absolute (No. cells) [6]: 0 No. cells
Neutrophils Band Relative (%) [6]: 0%
Neutrophils Segmented Absolute (No. cells) [6]: 895 (163–1626) No. cells
Neutrophils Segmented Relative (%) [6]: 9.00 ^a (2.55–15.4) %
Liver glycogen: positive cells (<50%), periportal region [7]: increase
Liver glycogen: PAS-positive cells (>50%), overall analysis of the liver ([7]; compared to control group): more PAS-positive cells (>50%)
Liver cells with fatty microvesicular changes ([7]; compared to the PQ group, listed as prodrug): fewer cells with fatty microvesicular changes; also recorded: lower percentage of cells with fatty microvesicular changes
Liver glycogen: PAS-positive cells (total), periportal region [7]: more PAS-positive cells (total) compared to the control group
Histopathological analysis of the kidney [7]: normal structures, with no alteration in the glomeruli and renal tubules
oral bioavailability [8]: approximately 50%
Hemolysis % ([9]; 125 µg/mL (Phe-Ala-PQ: 23.7 µg/mL PQ equivalents)): 0%
Hemolysis % ([9]; 500 µg/mL (Phe-Ala-PQ: 95 µg/mL PQ equivalents)): 51%
Hemolysis ([9]; concentrations equal to or less than 250 µg/mL (47.5 µg/mL PQ equivalents)): did not cause hemolysis

COc1cc(NC(C)CCCN)c2ncccc2c1 (stereo not shown) [PQ, Primaquine]
chromatographic logP [1]: 2.1
Mean oocyts ±SD/ in times 4 h [2, 13]: 2.1
Mean oocyts ±SD/ in times 4 h ([2]; single oral dose 1.0 mg/kg (Phe-Ala-PQ: 0.19 mg/kg PQ), listed as PQ diphosphate): 2.1±4.3
Reduction in oocyst number, % [2, 13]: 96%
Sporogony inhibition, % [2, 13]: 50%
MDL50 (Mean±SD) BGM ([3]; MTT): 263 µg/mL and 263 ± 4 µg/mL
MDL50 (Mean±SD) HepG2 ([4]; MTT): 180 µg/mL and 180 ± 24 µg/mL
ALP [5]: 125.6 U/L
ALT [5]: 91.81 ^a U/L
AST [5]: 64.99 ^a U/L
Creatinine [5]: 0.986 mg/dL and 0.986 ^a mg/dL
Direct bilirubin [5]: 0.228 mg/dL
GGT [5]: 22.88 ^a U/L
Total bilirubin [5]: 0.797 mg/dL and 0.797 ^a mg/dL
Urea [5]: 18.51 mg/dL
Eosinophils Absolute (No. cells) [6]: 97 (43–151) No. cells
Eosinophils Relative (%) [6]: 2.10 (0.77–3.42) %
Hematocrit [6]: 46 (44–48) %
Leukocytes [6]: 4840 (3973–5706) /mm^3
Lymphocytes Absolute (No. cells) [6]: 4123 (3200–5046) No. cells
Lymphocytes Relative (%) [6]: 83.9 ^a (78.9–88.9) %
Methemoglobin [6]: 3.89 (3.39–4.40) %
Monocytes Absolute (No. cells) [6]: 96 ^a (52–140) No. cells
Monocytes Relative (%) [6]: 2.30 ^a (0.86–3.73) %
Neutrophils Band Absolute (No. cells) [6]: 6 (0–19) No. cells
Neutrophils Band Relative (%) [6]: 0.11 (0.00–0.36) %
Neutrophils Segmented Absolute (No. cells) [6]: 516 ^a (403–629) No. cells
Neutrophils Segmented Relative (%) [6]: 11.6 ^a (8.15–15.0) %
Liver glycogen: positive cells (<50%), periportal region [7]: decrease
Liver glycogen: PAS-positive cells (total), periportal region [7]: more PAS-positive cells (total) compared to the control group
Histopathological analysis of the kidney [7]: normal structures, with no alteration in the glomeruli and renal tubules
hemolysis at 31 µg/mL [10]: 0%
hemolysis at 62 µg/mL [10]: 0%
hemolysis at 1000 µg/mL [10]: 100%
plasma half-life [11]: ca. 6 h
hemolysis at 125 µg/mL [12]: 0%
hemolysis at 250 µg/mL [12]: 50%
hemolysis at 500 µg/mL [12]: 87.8%
